{
  "source": "paper PMC11587516",
  "about": "(ACS Chemical Neuroscience, 2024)",
  "key": {"[1]": {"target": "T1, hBGT1 E52A (Homo sapiens, UniProt P48065, E52A)", "T1 construct": "host or cells: tsA201 cells (transformed HEK293), transient expression", "T1 sequence (P48065 1-614 E52A)": "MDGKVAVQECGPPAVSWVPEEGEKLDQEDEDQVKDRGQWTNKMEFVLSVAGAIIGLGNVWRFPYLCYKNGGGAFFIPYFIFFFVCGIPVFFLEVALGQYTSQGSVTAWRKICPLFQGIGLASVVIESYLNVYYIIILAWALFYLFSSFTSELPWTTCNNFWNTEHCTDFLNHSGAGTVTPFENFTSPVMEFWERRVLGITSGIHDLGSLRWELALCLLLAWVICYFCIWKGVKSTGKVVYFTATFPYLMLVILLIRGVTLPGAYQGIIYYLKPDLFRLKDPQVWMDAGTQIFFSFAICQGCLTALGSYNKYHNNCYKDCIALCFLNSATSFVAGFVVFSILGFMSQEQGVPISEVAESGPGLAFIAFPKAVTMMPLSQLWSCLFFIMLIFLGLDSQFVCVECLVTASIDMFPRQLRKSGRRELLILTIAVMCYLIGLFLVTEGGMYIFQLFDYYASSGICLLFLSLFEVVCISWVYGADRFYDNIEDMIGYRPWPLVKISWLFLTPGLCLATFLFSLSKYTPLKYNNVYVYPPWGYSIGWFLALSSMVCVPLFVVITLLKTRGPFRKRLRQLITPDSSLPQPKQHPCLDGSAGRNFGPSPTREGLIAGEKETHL", "experiment": "[3H]GABA uptake assay, hBGT1 mutant E52A in tsA201 cells", "assay_type": "cell-based", "experimental": "(§1) To validate the molecular modeling, particularly the crucial interactions with the Glu52 and Gln299 residues, the activity of compound 9 was tested on the following hBGT1 mutants: E52A, E52Y, Q299L, and the double mutant E52A+Q299L (Figure 5 and Table 1).[14]\n(§2) The CHO cells were placed in 96-well plates (approximately 50,000 cells/well) for about 24 h before the experiment. […] After incubation, cells were washed 3 times with 100 μL/well ice-cold assay buffer, 150 μL/well MicroScint20 (PerkinElmer) was subsequently added before the plate was shaken for at least 1 h. The radioactivity of each well of the plate was measured on a TopCount NXT scintillation counter. […] Data presented are the pooled data of at least three independent experiments with three technical replicates if not stated otherwise in figure legends. Concentration–response curves were fitted by nonlinear regression to the sigmoidal concentration–response model with GraphPad Prism v 9.0.\n(§3) The tsA201 cell line (a transformed HEK293 cell line) has been described previously and was cultured accordingly.[20] The tsA201 cells used for transient expression of hBGT1 mutants were transfected with DNA constructs (8 μg per 10 cm plate) using 40 μL of PolyFect transfection reagent according to the manufacturer’s protocol (Qiagen). […]"}, "[2]": {"system": "SH-SY5Y neuroblastoma cells", "settings": "1 mM MPP+, 24 h", "experimental": "The model used mimics certain aspects of neurodegenerative diseases, where GABAergic dysfunction and neuronal death are prominent features. […] The neuroprotection studies were performed to determine the ability of compound 9 to prevent MPP^+ (1-methyl-4-phenylpyridinium) toxicity at a concentration of 1 mM, which was coincubated with compound 9 for 24 h. MPP^+ is a well-established neurotoxin that selectively damages neurons, making it a commonly used agent to model aspects of neurodegenerative conditions in vitro. It induces oxidative stress and mitochondrial dysfunction, leading to cell death. Cell viability was detected by a standard MTS assay.\nNeuroprotection studies were performed according to the procedure described previously.[27] In brief, SH-SY5Y CRL-2266 (American Type Culture Collection, Manassas, VG) were seeded in microplate at a concentration of 2.5 × 10^4 cells/well in 100 μL of culture medium and cultured for 24 h at 37 °C and 5% CO2. […] Next, MPP^+ was added at a final concentration of 1 mM and the cells were placed in the incubator. After 24 h of the compound coincubation with MPP^+, the CellTiter 96 AQueous Nonradioactive Cell Proliferation Assay (MTS) was performed. The test was purchased from Promega (Madison, WI). The absorbance was measured using a microplate reader EnSpire (PerkinElmer, Waltham, MA) at 490 nm. All results were shown as mean ± SD. The statistical significances were calculated by GraphPad Prism 6.0 software."}, "[3]": {"system": "GABAA receptors", "experiment": "GABAA receptor [3H]-muscimol radioligand binding assay, rat cortical membranes", "settings": "rat cortex", "method": "A 10 mM stock solution of the tested compound was prepared in DMSO. Serial dilutions of the compound were prepared in 96-well microplates in assay buffers using automated pipetting system epMotion 5070 (Eppendorf). Each compound was tested in 8 concentrations from 10^–3 to 10^–10 M (final concentration). Radioligand binding was performed using tissue rat cortex according to the previous procedure.[22] All assays were carried out in duplicates. 50 μL of working solution of the tested compounds, 50 μL of [^3H]-muscimol (final concentration 2.0 nM), and 150 μL of tissue suspension prepared in assay buffer (50 mM Tris-HCl, pH 7.4) were transferred to polypropylene 96-well microplate using 96-well pipetting station Rainin Liquidator (Mettler-Toledo). […] The microplate was covered with sealing tape, mixed, and incubated for 15 min at 4 °C. The reaction was terminated by rapid filtration through GF/B filter mate. Ten rapid washes with 200 μL of 50 mM Tris buffer (4 °C, pH 7.4) were performed using 96-well FilterMate harvester (PerkinElmer). The filter mates were dried at 37 °C in forced air fan incubator and then solid scintillator MeltiLex was melted on filter mates at 90 °C for 4 min. The radioactivity on the filter was measured in MicroBeta TriLux 1450 scintillation counter (PerkinElmer). […]"}, "[4]": {"system": "normal human astrocytes (NHA)", "experiment": "Confocal imaging of astrocyte morphology after incubation in PBS (non-GABA conditions)", "assay_type": "cell-based", "settings": "500 μM in PBS, non-GABA environment; 72 h", "experimental": "To this end, we tested whether blocking the transport of GABA under experimental non-GABA extracellular conditions may impair the homeostasis of these cells. […] Afterward, the cells were stained to visualize actin filaments using confocal microscopy. […] Nevertheless, further kinetic studies are necessary to verify this hypothesis.\nNHA was grown on a coverslip in a 35 mm culture dish. After treatment, the cells were fixed (4% paraformaldehyde) and permeabilized (0.1% Triton X-100). Then, the samples were stained with Phalloidin-Atto 565 (Sigma-Aldrich, Inc.) according to the manufacturer’s protocol. Laser confocal microscope Nikon Eclipse Ti-E A1R-Si and Nikon NIS Elements AR software were used for cell imaging."}, "[5]": {"target": "T2, hBGT1 E52Y (Homo sapiens, UniProt P48065, E52Y)", "T2 construct": "host or cells: tsA201 cells (transformed HEK293), transient expression", "T2 sequence (P48065 1-614 E52Y)": "T1 sequence (P48065 1-614 E52A) with A52Y", "experiment": "[3H]GABA uptake assay, hBGT1 mutant E52Y in tsA201 cells", "assay_type": "cell-based", "experimental": "as §1, §2, §3"}},
  "note": "Where a chain is given by its changes, count along the chain named. Like-named read-outs stand apart in the source and are kept apart here.",
  "data": [
    {"smiles": "NC12CC(C(=O)O)(C1)C2", "note": "[Compound 9]", "values": [
      {"measurement": "IC50", "setting": "[1]", "value": 64.2, "unit": "µM"},
      {"measurement": "decrease in activity compared with wild type hBGT1", "setting": "[1]; E52A vs wt", "value": "~2", "unit": "fold"},
      {"measurement": "cell viability compared to MPP+ alone", "setting": "[2]; 10 μM", "value": "increased cell viability"},
      {"measurement": "cell viability compared to MPP+ alone", "setting": "[2]; 50 μM", "value": "significantly increased cell viability"},
      {"measurement": "displacement of [3H]-muscimol", "setting": "[3]; 100 μM", "value": 4, "unit": "%"},
      {"measurement": "Ki ± SEM", "setting": "[3]; [3H]-muscimol 2.0 nM", "value": "no affinity ^a"},
      {"measurement": "astrocyte morphology (actin staining)", "setting": "[4]", "value": "cell shrinkage and a loss of cell-to-cell contact"},
      {"measurement": "IC50", "setting": "[5]", "value": "> 1000", "unit": "µM"},
      {"measurement": "activity at mutant compared with wild type hBGT1", "setting": "[5]; E52Y vs wt", "value": "complete loss of activity"}
    ]}
  ]
}
